Reference: patent US5208032A, “Increasing the growth of turkeys using implant of 19-nortestosterone” (Rutgers, The State University of New Jersey, priority 1992, dated 1993)

Legend:
5-alpha-DHT anti-serum = conditions: antibody provided by Dr. Alan L. Johnson; cited from earlier work
[1] = Comparison of effects on growth in intact male and female White Leghorn chickens (Study II, Table 1); type: in vivo; conditions: for 6-week Body Weight Change / 12-week Body Weight Change / 12-week Shank-Toe Length Change: 1.0-cm implant, vs cholesterol control, (decrease); for 6-week Body Weight / 12-week Body Weight (final) / 12-week Shank-Toe Length: 1.0-cm s.c. implant
Method: The single comb White Leghorn strain (Dekalb XL) of chicken (Avian Services, Frenchtown, N.J.) was used in all studies. Chicks were obtained on the day following hatch and were then maintained in a well ventilated, temperature- and humidity-controlled animal room. Chicks were housed in temperature-controlled (access to small brood chambers--32° to 35° C.), wire-floored, 5-tier brooder batteries (measuring 0.74 W×1.55 L×0.27 H m per tier) until termination of respective studies. A 12 hour light:12 hour dark photoperiod was maintained at all times within the animal room. Feed and water were available ad libitum, with a standard commercial diet (Agway; Bordentown, N.J.), chick starter mash, fed to chicks 1 to 42 days of age, and then from 43 to 84 days, grower mash was provided (manufacturer statement on ration compositions are shown in Table 2).
In all studies, chicks were rank-ordered by weight, wing-banded and distributed into treatment groups of equal body weights at 14 days of age. Excluding Study I, e.g., in which male, female and castrate male comparisons were made, all control groups were implanted with 1.0-cm length cholesterol-filled Silastic polysiloxane implants (i.e., steroid surface exposure of 1.0-cm; actual length was 2.0-cm with 1/2 cm wood dowel plugs placed at each end of implant). The remaining treatment groups consisted of chicks (male, female or castrated male) implanted with either testosterone-, 5-alpha-DHT-, 5-beta-DHT-, estradiol-17-beta-, or 19-nortestosterone-filled Silastic polysiloxane implants with steriod surface exposures of either 0.3, 1.0 or 3.0 cm in length. Steroid implants were prepared by manually packing respective crystalline steroids (Steraloids; Wilton, N.H.) into Silastic Medical Grade tubing (1.57 mm i.d.; Dow Corning) (Smith et al., 1977). The amounts of steroid contained in the implants were as follows (mean±SEM of 20 randomly chosen implants, 5 for each steroid): 2.6±0.2 mg (0.3-cm), 8.9±0.4 mg (1.0-cm), and 29.2±0.7 mg 3.0-cm). At the time of group assignment, implants were placed in the subcutaneous (S.C.) layer of skin behind the neck. Supplemental steroid implants (containing doses of steroids equivalent to those of the initial implants) were implanted at 6 and 10 weeks of age, without removal of prior implants, to ensure adequate androgen replacement with increasing growth. Cage floors and fecal collection trays were checked for 2 consecutive days following each implantation session to ensure completeness of procedure. […] An outline of individual studies along with experimental treatments (i.e., type and dose of steroid) and number of birds per treatment group is given in Table 3.
Body weight and shank-toe length (King, 1969; combined length of metatarsus and longest toe which is an estimate of bone growth) were measured at weekly (or biweekly in Study I) intervals from the beginning through the end of each study. At the termination of studies I (12 weeks of age), III (12 weeks of age), IV (12 weeks of age) and V (6 weeks of age), several organs were excised and immediately weighed at necropsy. Relative tissue weights (percent of final body weight) and body weight minus [comb plus wattle weights] (i.e., final adjusted body weight) were also calculated. Excluding Study I, biweekly blood samples were obtained by venipuncture of the wing vein from the same individual birds for respective treatments. After centrifugation of whole blood, plasma was removed and stored at -20° C. until hormone assays were performed.
^a Steroid treatments entailed the subcutaneous implantation (between
the shoulders) of 1.0 cm length, silastic implants (crystalline steroids
at 2, 6 and 10 weeks of age.)

[2] = Growth of castrate male turkeys implanted with 19-nortestosterone (Study III, Table V); type: in vivo, Large White Nicholas turkeys; conditions: castrated male, 5-cm capsule
Method: The same large white strain of turkey (received 1 day posthatching from Nicholas Breeding Farms, CA) was used in all studies. Poults were reared in deep litter brooder pens from 1 day posthatch and exposed to constant light until initiation of Studies I and III or through completion in the case of Study II. Studies I and III were conducted in an environmentally controlled room (photoperiod 12L:12D) with birds housed individually in wire-floored layer cages (space dimensions of 0.31 W×0.46 L×0.53 H meters per cage). Water and feed (Agway Game and Turkey Starter Crumbles) was available at all times. Turkeys were rank ordered by weight and distributed into treatment groups of equal mean body weights at the start of each Study (I, II and III).
Body weight determinations were made at the second and final week of each study, and several organs and tissues were excised and immediately weighed at the time of necropsy. Final shank-toe length, as an indicator of skeletal growth, was also determined. Birds were sacrificed via exanguination by laceration of the jugular vein. Specific details on the experimental design and conduct of each turkey study will follow.
Male and female turkeys were either sham-operated or castrated (Quigley, 1962) at 4 weeks of age in the same manner as previously described for chickens. However, due to the small size and extremely viscous nature of the turkey testicle at 2 weeks of age, birds were castrated at 4 weeks of age. […] This was important since when a portion of the testicle is left behind or dropped back inside the body cavity after having been torn loose, the bird will become what is called in the poultry industry, a "slip".
Pre- (4 weeks) and post-surgically (1 week), birds were floor-reared together on pine shavings. At 5 weeks of age, birds were transferred to individual layer cages (dimensions as in Study I) in an environmentally controlled animal room. One week later (6 weeks of age), birds were assigned to 4 groups (9 birds/group). Group 1 was composed of intact males (sham-operated); Group 2, intact females (sham-operated); Group 3, castrated males implanted that same day with cholesterol-filled Silastic polysiloxane capsules (5.0-cm); and Group 4, castrated males implanted that same day with 19-nortestosterone-filled Silastic polysiloxane capsules (5.0-cm). Castrated males were rank ordered by weight prior to group assignment. Male and female groups were composed of birds which had the intermediate body weights from a pool of 15 birds for each sex. Birds were randomized (planned) into cages among tiers (5 cages per tier) and racks, similar to that of Study I, in order to eliminate any rack (4) or tier (3 vertical) effects within the room. Birds served as individual treatment units for all parameters measured including feed consumption (i.e., supplied with individual box-type feeders) and were placed into every other cage starting on the top tier in rack 1.

[3] = change vs castrated control, unsigned (increase)

Structure (SMILES) | 6-week Body Weight Change ([1]; intact female) | 12-week Body Weight Change ([1]; intact female) | 12-week Shank-Toe Length Change ([1]; intact female) | 6-week Body Weight ([1]; intact female) | 12-week Body Weight (final) ([1]; intact female) | 12-week Shank-Toe Length ([1]; intact female) | 6-week Body Weight Change ([1]; intact male) | 12-week Body Weight Change ([1]; intact male) | 12-week Shank-Toe Length Change ([1]; intact male) | 6-week Body Weight ([1]; intact male) | 12-week Body Weight (final) ([1]; intact male) | 12-week Shank-Toe Length ([1]; intact male) | also measured
C[C@]12CCC(=O)C[C@@H]1CC[C@@H]1[C@@H]2CC[C@]2(C)[C@@H](O)CC[C@@H]12 [5-alpha-DHT, 5-alpha-dihydrotestosterone] | 9.9% | 6.5% | 3.3% | 529 ± 12 g | 1051 ± 15 g | 14.6 ± 0.12 cm | 17.2% | 16.1% | 7.0% | 535 ± 27 g | 1171 ± 50 g | 15.9 ± 0.24 cm | reaction with 5-alpha-DHT anti-serum (Ford's-F/1) (5-alpha-DHT anti-serum): 100%
C[C@]12CC[C@H]3[C@@H](CCC4=CC(=O)CC[C@@H]43)[C@@H]1CC[C@@H]2O [19-Nortestosterone, 19-nortestosterone] | – | – | – | – | – | – | – | – | – | – | – | – | Abdominal Adipose [2]: 4.92 ± 0.91; Average Daily Gain [2]: 106 ± 3 g; Feed/Gain Ratio [2]: 1.86 ± 0.05; Final 9-Week Body Weight [2]: 3643 ± 64 g; Final 9-Week Shank-Toe Length [2]: 21.44 ± 0.18 cm; Right Breast Muscle [2]: 303 ± 13 g; Abdominal Adipose (%) ([2]; change vs castrated control, unsigned (decrease)): 65.6%; Average Daily Gain (%) [2, 3]: 16.5%; Final 9-Week Body Weight (%) [2, 3]: 5.9%; Right Breast Muscle (%) [2, 3]: 14.8%; Feed Efficiency ([2]; change vs castrated control, column head prints (g), cells %): 16.6%
C[C@]12CC[C@H]3[C@@H](CCC4=CC(=O)CC[C@@]43C)[C@@H]1CC[C@@H]2O [Testosterone, testosterone] | 5.8% | 5.1% | 2.6% | 553 ± 11 g | 1067 ± 22 g | 14.7 ± 0.09 cm | 9.4% | 8.6% | 3.1% | 585 ± 13 g | 1275 ± 27 g | 16.5 ± 0.17 cm | –
